{
  "source": "patent US10603298B2",
  "about": "“Succinate dehydrogenase inhibitors (SDHi's)” (Medical Research Council, priority 2014, dated 2020)",
  "key": {"[1]": {"system": "rat brain transient middle cerebral artery occlusion (tMCAO) IR injury", "test": "In vivo rat brain ischaemia and reperfusion (tMCAO): neurological score, infarct, histology", "parameters": "Median Neurological Score / Average Neurological Score: scale not given here", "conditions": "for Average Neurological Score / Median Neurological Score: dimethyl malonate 6 mg/kg/min i.v. infusion", "text": "The following murine models of warm ischaemia and/or IR injury were used: global ischaemia of ex vivo perfused mouse heart; in vivo mouse left descending coronary artery (LAD) ligation; in vivo rat brain transient middle cerebral artery occlusion (tMCAO); in vivo mouse kidney ischaemia by monolateral occlusion of the renal hilum; in vivo global ischaemia of the liver following cervical dislocation. The modelling of metabolic pathways in the ischaemic myocardium was done as described previously^11. The cell models of IR injury used were adult isolated primary rat cardiomyocytes and the mouse C2C12 myoblast cell line. Fluorescence within cardiomyocytes was assessed by laser scanning confocal microscopy. DHE fluorescence was used to measure ROS production, TMRM fluorescence in de-quench mode was used for mitochondrial membrane potential and NAD(P)H autofluorescence was used to assess the reduction potential of the NAD(P)H pools^8. To assess metabolic pathways in the ex vivo perfused mouse heart ^13C-labelled glucose, glutamine or aspartate were infused into the isolated heart and the ^13C isotopologues of CAC metabolites were then quantified by LC-MS. The effects of metabolic inhibitors on ischaemic metabolite accumulation and the distribution of ^13C-labels were assessed by i.v. infusion of metabolic inhibitors followed by LC-MS analysis of tissue metabolites. The redox state of the cardiac CoQ pool was assessed by LC. The amelioration of in vivo IR injury by metabolic inhibitors was assessed by i.v. administration of the inhibitors followed by measurement of the infarct size in the heart by triphenyltetrazolium chloride staining and in the brain by determining neurological function and infarct size by histology. Male spontaneously hypertensive stroke prone (SHRSP) rats from the colony maintained at the University of Glasgow (270-310 g) were anaesthetised with 5% isoflurane in oxygen and were intubated and ventilated throughout surgery (˜2.5% isoflurane/oxygen). Body temperature was maintained at 37±0.5° C. Animals underwent pre-stroke burrhole surgery^35 before transient middle cerebral artery occlusion (tMCAO, 45 min). Briefly, a silicone-coated monofilament was advanced (Doccol Corporation, USA) was advanced through the common carotid artery to block the origin of the MCA^36. Animals were maintained under anaesthesia during ischaemia. Immediately following removal of the filament, or after 5 mins of reperfusion, the brain was removed following cervical dislocation and infarct tissue separated from surrounding tissue on the ipsilateral side and snap frozen in liquid nitrogen for metabolomic analysis. Corresponding regions were taken from the contralateral side. […] These rats were then sacrificed by transcardiac perfusion fixation and the infarct area was assessed across 7 coronal levels following hematoxylin and eosin staining^39."}, "[2]": {"system": "adult primary rat cardiomyocytes", "test": "ROS production (DHE oxidation) in adult primary cardiomyocytes during in situ IR", "type": "cell-based", "conditions": "40 min ischaemia then reoxygenation, 4 mM in ischaemic buffer", "description": "FIG. 13: Tracking cardiomyocytes ROS levels in primary cardiomyocytes during in situ IR. Primary rat cardiomyocytes were subjected to 40 min ischaemia and reoxygenation with ROS levels tracked throughout the experiment by ratiometric measurement of dihydroethidium (DHE) oxidation. […] Representative traces of each condition are shown. The highlighted window indicates the period of the experiment expanded in detail in FIG. 3.a.\nMale Sprague-Dawley rats (300-370 g) were terminally anaesthetised via IP injections of 200 mg/kg sodium pentobarbitone and 330 U/kg heparin. Hearts were excised and retrograde perfused on a Langendorff-perfusion system with 13 mL/min oxygenated KH buffer at 37° C. Cells were isolated by collagenase digestion using standard methods^41. […]\nCells were imaged within 36 hours of plating. […] Simulated ischaemia was achieved by replacing the buffer with a pre-gassed, hypoxic recording buffer simulating ischaemia (as above but lacking glucose and containing 10 mM sodium lactate, 14.8 mM KCl; pH 6.4) and by covering the heated stage with a transparent, gas-impermeant lid, forming a small chamber into which argon was forced to maintain hypoxia. pO2 was routinely measured as <2.0 mm Hg during simulated ischaemia. […]\nROS production was estimated by oxidation of DHE. […] All measured cell parameters were analysed with Fiji image processing software."}},
  "data": [
    {"compound": "COC(=O)CC(=O)OC", "note": "[dimethyl malonate]", "values": [
      {"measurement": "Average Neurological Score", "setting": "[1]; Baseline, tMCAO rats", "result": 31.67},
      {"measurement": "Median Neurological Score", "setting": "[1]; Baseline, tMCAO rats", "result": 32.00},
      {"measurement": "Average Neurological Score", "setting": "[1]; Day 1 after tMCAO", "result": 22.67},
      {"measurement": "Median Neurological Score", "setting": "[1]; Day 1 after tMCAO", "result": 22.00},
      {"measurement": "Average Neurological Score", "setting": "[1]; Day 2 after tMCAO", "result": 24.00},
      {"measurement": "Median Neurological Score", "setting": "[1]; Day 2 after tMCAO", "result": 24.00},
      {"measurement": "Average Neurological Score", "setting": "[1]; Day 3 after tMCAO", "result": 24.33},
      {"measurement": "Median Neurological Score", "setting": "[1]; Day 3 after tMCAO", "result": 25.00},
      {"measurement": "neurological function associated with stroke", "setting": "[1]; i.v. infusion during rat tMCAO", "result": "preventing the decline in neurological function"},
      {"measurement": "protection against brain IR injury", "setting": "[1]; i.v. infusion during rat tMCAO", "result": "protective"},
      {"measurement": "volume of infarcted brain tissue caused by IR injury", "setting": "[1]; i.v. infusion during rat tMCAO", "result": "decreasing the volume of infarcted brain tissue"},
      {"measurement": "pyknotic nuclear morphology and vacuolation of the neuropil (histology)", "setting": "[1]; i.v. infusion during rat tMCAO, hematoxylin and eosin", "result": "reducing the pyknotic nuclear morphology and vacuolation of the neuropil"},
      {"measurement": "ROS production / DHE oxidation upon reperfusion", "setting": "[2]", "result": "reduced DHE oxidation upon reperfusion"}
    ]}
  ]
}
